{"source": "patent US20040132715A1", "about": "“Method to treat allergic rhinitis” (priority 2002, published 2004)", "type_in_all_cases": "in vivo", "key": {"[1]": {"system": "Zymosan Induced Peritonitis in Mice", "test": "Zymosan induced peritonitis in mice (PMN influx into peritoneal cavity)", "conditions": "for effect on PMN influx (in words): Imetit, thioperamide 5 mg/kg, s.c.; for PMN (10^6 per mouse), mean: group mean; for PMN (10^6 per mouse), mean / PMN (10^6 per mouse), single mice: s.c. at -15 min and +2 h (Compound 1 10 mg/kg; Imetit, Thioperamide 5 mg/kg), 1 mg zymosan A i.p.; for PMN (10^6 per mouse), single mice: lavage at 4 h", "method": "This is commonly used to induce peritonitis in mice and appears to act in a mast cell dependent manner. Male out-bred Swiss albino mice were purchased from Bantin and Kingman (T.O. strain; Hull, Humberside) and maintained on a standard chow pellet diet with tap water ad libitum and a 12:00 h light /dark cycle. All animals were housed for at least 3 days prior to experimentation to allow body weight to reach ˜30 g on the day of the experiment. […] Animals were briefly (30-60 s) anesthetized with halothane for all s.c. and i.p. treatments described below. Drugs were stored at room temperature, in the dark. On the day of the experiment, drugs were dissolved in sterile PBS as depicted below, and generously vortexed. […] Time −15 min: Compounds or PBS administered s.c. at the reported doses. Time 0: At time 0, mice received 1 mg zymosan A (Sigma) i.p. Time +2 h: Compounds or PBS administered s.c. at the reported doses. […] Peritoneal cavities were washed 4 h later with 3 mL of PBS containing 3 mM EDTA, and the number of migrated leukocytes determined, by taking an aliquot (100 μL) of the lavage fluid and diluting 1:10 in Turk's solution (0.01% crystal violet in 3% acetic acid). The samples were then vortexed and 10 μL of the stained cell solution were placed in a Neubauer haemocytometer. Differential cell counts were performed using a light microscope (Olympus B061). […] Statistical differences were determined by Anova followed by Bonferroni's post-hoc test."}, "[2]": {"system": "Croton Oil Induced Topical Inflammation in Mice", "test": "Croton oil induced topical inflammation in mice (ear swelling)", "conditions": "for Difference in ear Thickness, Mean: group mean, s.c. x3 (Compound 1 10 mg/kg; Indomethacin 30 mg/kg), 6 h after croton oil"}, "[3]": {"system": "Sodium Urate Crystal Induced Peritonitis in Mice", "test": "Sodium urate crystal (MSU) induced peritonitis in mice (PMN migration)", "method": "Such crystals are the primary cause of the inflammation associated with acute gouty arthritis.\nMale out-bred Swiss albino mice were purchased from Bantin and Kingman (T.O. strain; Hull, Humberside) and maintained on a standard chow pellet diet with tap water ad libitum and a 12:00 h light/dark cycle. All animals were housed for at least 3 days prior to experimentation to allow body weight to reach ˜30 g on the day of the experiment. For this particular experiment body weight was 30±1 (n=32).\nCompound 1 was stored at room temperature in the dark. […] Mice received 3 mg mono sodium urate crystals (MSU) given intra-peritoneally at time 0.\nTime +6 h: Peritoneal cavities were washed 6 h later with 3 mL of PBS containing 3 mM EDTA, and the number of migrated leukocytes determined, by taking an aliquot (100 μL) of the lavage fluid and diluting 1:10 in Turk's solution (0.01% crystal violet in 3% acetic acid). The samples were then vortexed and 10 μL of the stained cell solution were placed in a Neubauer hematocytometer. Differential cell counts were performed using a light microscope (Olympus B061). In view of their chromatic characteristics and their nucleus and cytoplasm appearance, cells polymorphonuclear cells (PMN, >95% neutrophils) could be easily differentiated\nExperimental groups are described below:\nData are shown for single mice, and also shown as mean ±SE of (n) mice per group. Statistical differences were determined by Student's t test. A P value <0.05 was taken as significant.\nPMN influx into the peritoneal cavity was measured at the 6 h time-point after collection of the lavage fluids and specific staining as described in the experimental section."}}, "note": "Values joined by “and” are separate entries in the source; they are usually repeats but may differ in a detail not shown here. Equal entries are not always repeated."}
{"compound": "S=C(NC1CCCCC1)N1CCC(c2cnc[nH]2)CC1", "note": "[Thioperamide]", "values": [{"measurement": "effect on PMN influx (in words)", "setting": "[1]; Compound 1 10 mg/kg, 4 h", "result": "significant inhibitory effect"}, {"measurement": "PMN (10^6 per mouse), mean", "setting": "[1]; 4 h", "result": "9.3 10^6 per mouse"}, {"measurement": "PMN (10^6 per mouse), single mice", "setting": "[1]", "result": "9.3 10^6 per mouse and 16.5 10^6 per mouse and 7.2 10^6 per mouse and 10.8 10^6 per mouse and 5.4 10^6 per mouse and 9.9 10^6 per mouse and 6.9 10^6 per mouse and 8.1 10^6 per mouse"}, {"measurement": "% inhib (PMN influx)", "setting": "[1]; vs PBS group, Compound 1 10 mg/kg, Thioperamide 5 mg/kg s.c., 4 h", "result": "(−46%)"}]}
{"compound": "COc1ccc2c(c1)c(CC(=O)O)c(C)n2C(=O)c1ccc(Cl)cc1", "note": "[Indomethacin, reference compound]", "values": [{"measurement": "Difference in ear Thickness, Mean", "setting": "[2]", "result": 10.0, "unit": "× 0.01 mm"}]}
{"compound": "CN1CCN(C(=O)c2cc3cc(Cl)ccc3[nH]2)CC1", "note": "[Compound 1, (5-Chloro-1H-indol-2-yl)-(4-methyl-piperazin-1-yl)-methanone]", "values": [{"measurement": "effect on ear swelling (in words)", "setting": "[2]; 10 mg/kg x 3 s.c.", "result": "significantly reduced the swelling"}, {"measurement": "inhibition at 10 mg/kg", "setting": "[2]; Mus musculus, sc, 6 h, read-out: % inhib (ear swelling)", "result": 28, "unit": "%"}, {"measurement": "Difference in ear Thickness, Mean", "setting": "[2]", "result": 12.0, "unit": "× 0.01 mm"}, {"measurement": "Difference in ear Thickness, single mice", "setting": "[2]; single mice, s.c. 30 min before, 2 and 4 h after croton oil (Compound 1 10 mg/kg; Indomethacin 30 mg/kg), measured 6 h after croton oil", "result": "12 × 0.01 mm and 10 × 0.01 mm and 13 × 0.01 mm and 9 × 0.01 mm and 16 × 0.01 mm"}, {"measurement": "effect on PMN migration (in words)", "setting": "[3]; 10 mg/kg s.c., 6 h", "result": "significantly reduced PMN migration"}, {"measurement": "PMN (10^6 per mouse), mean", "setting": "[3]; group mean, 10 mg/kg s.c. at -15 min, +2 h and +4 h, 3 mg MSU crystals i.p., 6 h time-point", "result": "6.8 10^6 per mouse"}, {"measurement": "PMN (10^6 per mouse), single mice", "setting": "[3]; single mice, 10 mg/kg s.c. at -15 min, +2 h and +4 h, 3 mg MSU crystals i.p., 6 h time-point, 10 mg/kg", "result": "7.8 10^6 per mouse (2×) and 4.5 10^6 per mouse and 3.0 10^6 per mouse and 8.1 10^6 per mouse and 9.3 10^6 per mouse and 6.6 10^6 per mouse and 7.2 10^6 per mouse"}, {"measurement": "effect on PMN influx (in words)", "setting": "[1]; Compound 1 10 mg/kg, 4 h", "result": "significantly reduced PMN influx"}, {"measurement": "PMN (10^6 per mouse), mean", "setting": "[1]; 4 h", "result": "6.6 10^6 per mouse"}, {"measurement": "PMN (10^6 per mouse), single mice", "setting": "[1]", "result": "9.9 10^6 per mouse and 3.6 10^6 per mouse and 9.3 10^6 per mouse and 3.3 10^6 per mouse and 8.1 10^6 per mouse and 5.1 10^6 per mouse and 6.9 10^6 per mouse"}]}
{"compound": "N=C(N)SCCc1cnc[nH]1", "note": "[Imetit]", "values": [{"measurement": "effect on PMN influx (in words)", "setting": "[1]; Compound 1 10 mg/kg, 4 h", "result": "inactive"}, {"measurement": "PMN (10^6 per mouse), mean", "setting": "[1]; 4 h", "result": "17.3 10^6 per mouse"}]}
